Measured values: patent publication US12338256B2, “Aza-tetracyclic oxazepine compounds and uses thereof” (Genentech, Inc., priority 2022, dated 2025)
pIC50: −log10 of the molar value. Like-named read-outs stand apart in the source and are kept apart here.

Tests used:
[1] = test system: HPAC (homozygous mutant KRAS G12D human pancreatic cell line); test: KRAS 3D-Cell Proliferation Assay, HPAC (Example 503); type: cell-based; settings: Homo sapiens, 168 h, HPAC 3D culture, 7 days, CellTiter-Glo 3D, read-out: Prolif HPAC 3D ATP IC50
How it was run: (§1)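 IC50s come from a 4-parameter Hill fit of luminescence (CellTiter-Glo 3D) normalized between DMSO (0%) and 1 μM staurosporine (100%). Cells in low-attachment 3D culture, RPMI-1640 with 10% FBS, received serial compound dilutions (0.3% DMSO) after overnight and were incubated 7 days at 37 °C.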

[2] = test system: H1975 (KRAS wild type human lung adenocarcinoma cell line); test: KRAS 3D-Cell Proliferation Assay, H1975 (Example 503); type: cell-based; settings: Homo sapiens, NCI-H1975, 168 h, H1975 3D culture, 7 days, CellTiter-Glo 3D; read-out: Prolif H1975 3D ATP IC50
How it was run: as §1

Compound	pIC50 ([1]; HPAC)	pIC50 [2]	pIC50 [1]
C[C@@H]1Oc2nc(-c3cc(N)cc(F)c3C(F)(F)F)c(F)c3nc(OCC4CCC5N4CCOC5(C)C)nc(c23)N2C[C@H]3CC[C@H](N3)[C@@H]12 (stereo partly drawn) [Compound 157, 3-((5S,5aS,6S,9R)-12-((1,1-Dimethylhexahydro-1H-pyrrolo[2,1-c][1,4]oxazin-6-yl)methoxy)-1-fluoro-5-methyl-5a,6,7,8,9,10-hexahydro-5H-4-oxa-3,10a,11,13,14-pentaaza-6,9-methanonaphtho[1,8-ab]heptalen-2-yl)-5-fluoro-4-(trifluoromethyl)aniline]	7.89	5.67	–
Cc1nc(N)cc(-c2nc3c4c(nc(OCC5(CN6CC[C@@H](F)C6)CC5)nc4c2F)N2C[C@H]4CC[C@H](N4)[C@H]2[C@H](C)O3)c1C(F)(F)F [Compound 284, 4-((5S,5aS,6S,9R)-1-fluoro-12-((1-(((R)-3-fluoropyrrolidin-1-yl)methyl)cyclopropyl)methoxy)-5-methyl-5a,6,7,8,9,10-hexahydro-5H-4-oxa-3,10a,11,13,14-pentaaza-6,9-methanonaphtho[1,8-ab]heptalen-2-yl)-6-methyl-5-(trifluoromethyl)pyridin-2-amine]	8.91	6.31	–
Cc1nc(N)c(F)c(-c2nc3c4c(nc(OC[C@@]56CCCN5C[C@H](F)C6)nc4c2F)N2C[C@H]4CC[C@H](N4)[C@H]2[C@H](C(F)(F)F)O3)c1C(F)(F)F [Compound 256, 3-Fluoro-4-((5R,5aS,6S,9R)-1-fluoro-12-(((2R,7aS)-2-fluorotetrahydro-1H-pyrrolizin-7a(5H)-yl)methoxy)-5-(trifluoromethyl)-5a,6,7,8,9,10-hexahydro-5H-4-oxa-3,10a,11,13,14-pentaaza-6,9-methanonaphtho[1,8-ab]heptalen-2-yl)-6-methyl-5-(trifluoromethyl)pyridin-2-amine]	–	7.03	7.86
Cc1c(F)c(N)cc(-c2nc3c4c(nc(OC[C@@H](F)CN5CC(CO)(CO)C5)nc4c2F)N2C[C@H]4CC[C@H](N4)[C@H]2[C@H](C)O3)c1C(F)(F)F [Compound 146]	5.76	4.70	–
Cc1cc(N)c(F)c(-c2nc3c4c(nc(OC[C@@H]5CC[C@H]6COCCN65)nc4c2F)N2C[C@H]4CC[C@H](N4)[C@H]2[C@H](C)O3)c1CC(F)F [Compound 231, 4-(2,2-Difluoroethyl)-2-fluoro-3-((5S,5aS,6S,9R)-1-fluoro-12-(((6S,8aS)-hexahydro-1H-pyrrolo[2,1-c][1,4]oxazin-6-yl)methoxy)-5-methyl-5a,6,7,8,9,10-hexahydro-5H-4-oxa-3,10a,11,13,14-pentaaza-6,9-methanonaphtho[1,8-ab]heptalen-2-yl)-5-methylaniline]	7.40	4.88	–
Cc1nc(N)c(F)c(-c2nc3c4c(nc(OCC5(CN6CCOCC6)CC5)nc4c2F)N2C[C@H]4CC[C@H](N4)[C@H]2[C@H](C)O3)c1C(F)(F)F [Compound 219, 3-Fluoro-4-((5S,5aS,6S,9R)-1-fluoro-5-methyl-12-((1-(morpholinomethyl)cyclopropyl)methoxy)-5a,6,7,8,9,10-hexahydro-5H-4-oxa-3,10a,11,13,14-pentaaza-6,9-methanonaphtho[1,8-ab]heptalen-2-yl)-6-methyl-5-(trifluoromethyl)pyridin-2-amine]	8.44	5.08	–
Cc1nc(N)cc(-c2nc3c4c(nc(OC[C@@]56CCCN5C[C@H](F)C6)nc4c2F)N2C[C@H]4CC[C@H](N4)[C@H]2[C@H](C)O3)c1CC(F)F [Compound 189, 5-(2,2-Difluoroethyl)-4-((5S,5aS,6S,9R)-1-fluoro-12-(((2R,7aS)-2-fluorotetrahydro-1H-pyrrolizin-7a(5H)-yl)methoxy)-5-methyl-5a,6,7,8,9,10-hexahydro-5H-4-oxa-3,10a,11,13,14-pentaaza-6,9-methanonaphtho[1,8-ab]heptalene-2-yl)-6-methylpyridin-2-amine]	7.02	4.70	–
Cc1c(F)c(N)c(F)c(-c2nc3c4c(nc(OC[C@@H]5C[C@@H](F)CN5C)nc4c2F)N2C[C@H]4CC[C@H](N4)[C@H]2[C@H](C)O3)c1C(F)(F)F [Compound 228, 2,6-Difluoro-3-((5S,5aS,6S,9R)-1-fluoro-12-(((2S,4R)-4-fluoro-1-methylpyrrolidin-2-yl)methoxy)-5-methyl-5a,6,7,8,9,10-hexahydro-5H-4-oxa-3,10a,11,13,14-pentaaza-6,9-methanonaphtho[1,8-ab]heptalen-2-yl)-5-methyl-4-(trifluoromethyl)aniline]	5.70	4.70	–
Cc1c(F)c(N)cc(-c2nc3c4c(nc(OC[C@@H]5CC[C@@H]6CC(C(=O)N(C)C)CCN65)nc4c2F)N2C[C@H]4CC[C@H](N4)[C@H]2[C@H](C)O3)c1C(F)(F)F (single isomer, unassigned) [133 (isomer 3)]	7.44	6.18	–
C[C@@H]1Oc2nc(-c3[nH]c(=O)cc4ccccc34)c(F)c3nc(OC[C@@]45CCCN4C[C@H](F)C5)nc(c23)N2C[C@H]3CC[C@H](N3)[C@@H]12 [Compound 105, 1-((5S,5aS,6S,9R)-1-Fluoro-12-(((2R,7aS)-2-fluorotetrahydro-1H-pyrrolizin-7a(5H)-yl)methoxy)-5-methyl-5a,6,7,8,9,10-hexahydro-5H-4-oxa-3,10a,11,13,14-pentaaza-6,9-methanonaphtho[1,8-ab]heptalen-2-yl)isoquinolin-3(2H)-one]	5.70	4.70	–
Cc1nc(N)cc(-c2nc3c4c(nc(OC[C@@]56CCCN5C[C@H](F)C6)nc4c2F)N2C[C@H]4CC[C@H](N4)[C@H]2[C@H](C)O3)c1OC(F)F [Compound 188, 5-(Difluoromethoxy)-4-((5S,5aS,6S,9R)-1-fluoro-12-(((2R,7aS)-2-fluorotetrahydro-1H-pyrrolizin-7a(5H)-yl)methoxy)-5-methyl-5a,6,7,8,9,10-hexahydro-5H-4-oxa-3,10a,11,13,14-pentaaza-6,9-methanonaphtho[1,8-ab]heptalene-2-yl)-6-methylpyridin-2-amine]	7.18	5.00	–
Cc1c(F)c(N)cc(-c2nc3c4c(nc(OCC5(CN6CC(F)C6)CC5)nc4c2F)N2C[C@H]4CC[C@H](N4)[C@H]2[C@H](C)O3)c1C(F)(F)F [Compound 173, 2-Fluoro-5-((5S,5aS,6S,9R)-1-fluoro-12-((1-((3-fluoroazetidin-1-yl)methyl)cyclopropyl)methoxy)-5-methyl-5a,6,7,8,9,10-hexahydro-5H-4-oxa-3,10a,11,13,14-pentaaza-6,9-methanonaphtho[1,8-ab]heptalene-2-yl)-3-methyl-4-(trifluoromethyl)aniline]	8.88	6.04	–
Cc1c(F)c(N)cc(-c2nc3c4c(nc(OC[C@@H]5CC[C@H]6C[C@@H](F)CN56)nc4c2F)N2C[C@H]4CC[C@H](N4)[C@H]2[C@H](C)O3)c1C(F)(F)F (single isomer, unassigned) [152 (isomer 1)]	7.76	6.10	–
Cc1nc(N)cc(-c2nc3c4c(nc(OCC5(CN6CCOC7(CC7)C6)CC5)nc4c2F)N2C[C@H]4CC[C@H](N4)[C@H]2[C@H](C)O3)c1C(F)(F)F [Compound 212, 4-((5S,5aS,6S,9R)-12-((1-((4-Oxa-7-azaspiro[2.5]octan-7-yl)methyl)cyclopropyl)methoxy)-1-fluoro-5-methyl-5a,6,7,8,9,10-hexahydro-5H-4-oxa-3,10a,11,13,14-pentaaza[6,9]methanonaphtho[1,8-ab]heptalene-2-yl)-6-methyl-5-(trifluoromethyl)pyridin-2-amine]	8.79	6.41	–
